Results published in US5051431A, “Pyridone nitriles useful in treating cardiovascular disease” (Glaxo Inc., priority 1990, dated 1991).
pEC50, pIC50: −log10 of the molar value.

Legend:
rat aorta [1] = conditions: literature, R. F. Kauffman et al., J. Pharmacol. Exp. Ther. 242:864-872 (1987); cited from earlier work
[2] = system: barbiturate-anesthetized dogs; experiment: Anesthetized Dog: beta-blocking effect (inhibition of the dP/dt response to isoproterenol); format: in vivo; conditions: Canis lupus familiaris, iv, infusion, isoproterenol 0.1-0.5 μg/kg i.v.
Protocol: (§1) Inotropic effects were evaluated in barbiturate-anesthetized dogs by differentiating left intraventricular pressure. This procedure was carried out essentially as described by M. K. Grizzel et al in the FASEB Journal, Vol. 3, page 1039, abstract 4728 (1989). Purpose breed mongrel dogs (14-20 kg) of either sex were anesthetized with a mixture of sodium pentobarbital (15 mg/kg) and sodium barbital (300 mg/kg) i.v., intubated with a cuffed endotracheal tube and ventilated with a respirator (Harvard Apparatus, model 613, South Natick, Mass.) with room air (22 rpm, 10-12 ml/kg/stroke). […] Cardiac output was determined via thermodilution with a Spectramed computer (Starcom., Oxnard, Calif.) and a 5F Swan Ganz catheter which was inserted into the right jugular vein and positioned in the pulmonary artery. […] A lead II electrocardiogram was measured using subcutaneous electrodes. […] Rectal temperature was monitored and maintained at 37°-38° C. with a heating pad (Baxter Health Care model K20, McGaw Park, Ill.). All variables were recorded using a Gould 3800S physiograph.
(§2) Isoproterenol (0.1-0.5 μg/kg) was injected i.v. into the cephalic vein at 10 min intervals except for when the test drug infusion was begun. […] Inhibition of the isoproterenol responses on contractility (dP/dt), heart rate and diastolic blood pressure were determined at each dose of test compound. […]

rat aorta [3] = experiment: Rat Aorta Protocol: relaxation of phenylephrine-contracted rat aorta rings (endothelium removed); format: cell-based
Protocol: Such vasorelaxation appears to be related to inhibition of the phosphodiesterase (PDE) isozyme related to the cardiac sarcoplasmic reticulum. Thus, relaxation of rat aorta can be used as a screen to eliminate compounds which are not PDE inhibitors prior to testing for actual inotropic activity.
Rings of rat aorta (endothelium removed) were prepared for the measurement of isometric force in isolated tissue organ chambers essentially as previously described by T. J. Rimele et al in the Journal of Pharmacol. Exo. Ther. 245:102-111 (1988). The experimental portion of the protocol began with the addition of methylene blue (1×10^-5 M) and propranolol (1×10^-6 M) to each organ chamber to inhibit basal cGMP accumulation due to soluble guanylate cyclase and beta-adrenoceptors.Phenylephrine (1×10^-7 M) was then added and the rings were allowed to obtain a stable contractile response after which time, the test compound was added in a cumulative fashion. The relaxation induced by each concentration of the test compound was expressed as a percentage of the maximal relaxation produced by nitroprusside (1×10^-4 M). The results were graphically represented as a plot of the percentage relaxation vs. the negative log of the molar concentration of the test compound. […]

[4] = system: barbiturate-anesthetized dogs; experiment: Anesthetized Dog: inotropic effect (increase in baseline left ventricular dP/dt); format: in vivo
Protocol: as §1, §2

guinea pig left atria = experiment: Guinea Pig Left Atria Test: direct effect on force of atrial contraction; format: cell-based; conditions: Cavia porcellus, propranolol and phentolamine (1.0 micromolar each) present
Protocol: This test is carried out as generally described by T. P. Kenakin et al in Journal of Cardiovascular Pharmacology 101, 658-666 (1987) and in the Journal of Pharmacology and Experimental Therapeutics, Vol. 213, 406-413 (1980).
Male Hartley guinea-pigs (300-400 grams) were sacrificed by cervical dislocation or carbon dioxide asphyxiation. The hearts were immediately removed and placed in oxygenated Krebs-Henseleit buffer (composition (millimolar): Na^+ 143, K^+ 5.9, Ca^++ 1.25, Mg^++ 1.2, Cl^- 128, HCO3^- 25, SO4^-- 1.2, H2 PO4^- 1.0, and D-glucose 10). Left atria were dissected away from the remainder of the heart and mounted on holders against platinum punctate electrodes. The mounted atria were placed in tissue baths maintained at 31° C. and oxygenated with 95% 02 -5% CO2 under 1.0 gram resting tension. […] Contractions were detected with a force displacement transducer and recorded on a physiograph. […]
Direct effects of the test compounds on the force of atrial contraction were observed and recorded after addition of the compounds to the tissue bath. […] Responses to the test compounds and forskolin were expressed as a percentage of the maximal response to forskolin. EC50 values for the test compounds were calculated as the concentration of the compound necessary to produce an inotropic response half that of the maximal response produced by the test compound.

Beta-1 adrenoceptor = target: T1, Beta-1 adrenoceptor (Rattus norvegicus, UniProt P18090); experiment: Beta Adrenoceptor Binding Assays: displacement of [I-125]-Pindolol from rat brain cortical membranes; conditions: pH 7.6, 22° C., two hr, read-out: pIC50 (negative log of the IC50) (converted)
T1 construct: rat brain cortices were used as the source of membrane vesicles; from tissue; host or cells: rat brain cortex membranes
Protocol: Because of its receptor density rat brain cortices were used as the source of membrane vesicles to be used in the receptor binding assays. Freshly excised cortexes were homogenized in 20 volumes (w/v) 50 mM TRIS HCl Buffer (pH 7.5), with a glass/Teflon homogenizer following the procedure previously described by T. J. Rimele in J. Pharmacol Exp. Ther. 239: 1-8, 1986. Beta-1 adrenoceptor binding activity was determined following methods described by M. H. Randall, et al, J. Med. Chem. 20: 1090-1094, 1977, and J. Homberger, et al in Mol. Pharmacol. 20: 453-469, 1981. The incubation mixture consisted of; 26 μl of 50 mM TRIS/HCl, 10 mM MgCl2 pH 7.6 buffer, 25 μl of test drug or 10-6 pindolol to define nonspecific binding, 100 μl of [I-125]-Pindolol (2200Ci/mM) at a final concentration of 10-9, and 100 μl of brain cortical membranes. The mixture was incubated at RT (22 ° C.) for two hr in the dark. The reaction was stopped by filtration of the mixture through buffer soaked glass fiber membranes (GF/B) using an cell harvesting device (Skatron Inc.). The radioactivity in each filter containing the trapped membrane particles was counted with a gamma counter. […] All specific binding values obtained in the presence of test compounds were expressed as the percentage of specific binding displaced by the individual agents. […]

T1 sequence (P18090 whole entry): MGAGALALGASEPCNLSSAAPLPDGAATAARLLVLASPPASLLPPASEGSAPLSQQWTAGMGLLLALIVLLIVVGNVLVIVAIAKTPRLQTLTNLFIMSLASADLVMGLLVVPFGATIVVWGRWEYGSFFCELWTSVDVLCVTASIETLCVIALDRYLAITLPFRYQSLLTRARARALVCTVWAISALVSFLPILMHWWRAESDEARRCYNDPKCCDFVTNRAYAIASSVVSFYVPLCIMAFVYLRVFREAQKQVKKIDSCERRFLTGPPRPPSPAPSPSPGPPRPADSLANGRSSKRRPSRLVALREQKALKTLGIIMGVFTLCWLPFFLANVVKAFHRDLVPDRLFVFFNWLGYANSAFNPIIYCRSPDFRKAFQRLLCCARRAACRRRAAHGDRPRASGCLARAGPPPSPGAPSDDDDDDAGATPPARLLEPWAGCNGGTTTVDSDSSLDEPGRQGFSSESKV

Structure (SMILES)	relaxation of rat aorta (rat aorta [1])	ED50 [2] [µmol/kg]	Emax at 100 µM (rat aorta [3]; Rattus norvegicus, at the highest dose tested (100 micromolar), read-out: maximal response (relaxation as percentage of the maximal relaxation produced by nitroprusside)) [%]	pIC50 (rat aorta [3]; rat aorta rings, endothelium removed, phenylephrine 1×10^-7 M, methylene blue and propranolol present, read-out: IC50 (concentration of test compound which produced a relaxation equivalent to 50% of the maximal relaxation induced by nitroprusside))	ED50 ([4]; Canis lupus familiaris, iv, infusion, compared to baseline prior to drug infusion, read-out: inotropic ED50 (50% increase in dP/dt)) [µmol/kg]	inotropic effects at higher doses, sensitivity to atenolol ([4]; higher doses, atenolol)	Emax at 100 µM (guinea pig left atria; at 100 micromolar, read-out: maximal response (percentage of the maximal response to forskolin)) [%]	pEC50 (guinea pig left atria; guinea pig left atria, 31° C., read-out: ED50 (concentration producing an inotropic response half that of the maximal response produced by the test compound))	IC50 (Beta-1 adrenoceptor) [µM]
Cc1[nH]c(=O)c(C#N)cc1-c1ccncc1 [milrinone]	marked relaxation								
Cc1[nH]c(=O)c(C#N)cc1-c1ccc(OCCCC(=O)NCCNCC(O)COc2ccccc2)cc1 (stereo not shown) [Example 2, 5-{4-[N-[2-(3-Phenoxy-2-hydroxypropylamino)ethyl]carbamoylpropyloxy]phenyl}-6-methyl-2-oxo-1,2-dihydro-3-pyridinecarbonitrile]		0.055	97	4.64	0.04	not blocked by atenolol	36	4.89	0.02
CSc1ccc(C(=O)c2[nH]c(=O)[nH]c2C)cc1 [enoximone]	marked relaxation								
